Experimental data reported in US20090087497A1, “Compositions and methods for treating symptoms of aging” (Burnham Institute for Medical Research, priority 2007, published 2009).

Assays:
[1] = system: Drosophila melanogaster; assay: Screen of individual and combined compounds on age-related physiological parameters (maximal heart rate and exercise capacity); assay type: in vivo; conditions: separate study of the five best combinations with larger number of flies; FIG. 3
Excerpt: The first dataset of combined interventions. We performed an initial screen of compounds for their effects on cardiac aging in Drosophila, selected for their very general effects on multiple biological functions, known low toxicity and, for some, known effects on aging in other models (Wood et al., Nature 430:686-689, 2004).
After screening 44 compounds individually at multiple doses (a total of 300 groups, each composed of 10-20 flies), we chose two doses each of four compounds for more comprehensive measurements of their combined effects on three age-related phenotypes: maximal heart rate and exercise capacity declines with age and survival. […]

[2] = system: flies; assay: Development of flies under doxycycline; assay type: in vivo, Drosophila
[3] = system: mice; conditions: 2 mg/ml in the drinking water, chronic; cited from earlier work

Compound: Oc1ccc(C=Cc2cc(O)cc(O)c2)cc1 [resveratrol]
- functional improvement confirmed in additional tests (climbing velocity and maximal heart rate) [1]: not

Compound: C[C@H]1c2cccc(O)c2C(=O)C2=C(O)[C@]3(O)C(=O)C(C(N)=O)=C(O)[C@@H](N(C)C)[C@@H]3[C@@H](O)[C@@H]21 [doxycycline]
- effect on development in flies [2]: slows development
- effect on body weight [3]: no effect
- plasma levels [3]: close to saturation
